Consider `COC(=O)c1cccc(/C=N/NC(=O)c2ccc(C)cc2)c1O` [I-2], for which the melting point (in general, the temperature of the solid-liquid transition) fell in the range of 134 to 137 °C.

Values taken from US20020032178A1 (priority 2000, published 2002).
